Reference: BindingDB's records for doi:10.1016/j.bmcl.2016.02.067 (Pfizer, 2016)
pIC50: −log10 of the molar value.

What was measured:
[1] = Inhibition of EGFR Del ex19 mutant in human HCC827 cells assessed as suppression of cell proliferation
[2] = Inhibition of EGFR L858R/T790M double mutant in human NCI-H1975 cells assessed as suppression of cell proliferation
[3] = Inhibition of wild type EGFR in human NCI-H1666 cells assessed as suppression of cell proliferation
[4] = Inhibition of EGFR Del ex19 mutant in human PC9 cells assessed as suppression of cell proliferation
[5] = Inhibition of EGFR Del ex19/T790M double mutant in human PC9 cells assessed as suppression of cell proliferation

Question: With `C=CC(=O)N1CC[C@@H](Oc2nc(Nc3ccc(N4CCC(N5CCN(C)CC5)CC4)cc3)c(C(N)=O)nc2CC)C1` [US9085540, 54] as the molecule, how does the pIC50 [1] read?
Answer: 8.10

Question: What about the pIC50 [2] of the same molecule?
Answer: 8.10

Question: And the pIC50 [3]?
Answer: 6.64

Question: And the pIC50 [4]?
Answer: 8.10

Question: What about the pIC50 [5] of the same molecule?
Answer: 8.10
